From patent US5948817A, “Polycyclic ethyl alkylamide melatonergic agents” (Bristol-Myers Squibb Company, priority 1998, dated 1999)

Biological target: T1, melatonin ML1A receptor (Homo sapiens, UniProt P48039)
T1 construct: expressed in transfected cells; membrane homogenates
Experiment: Melatonergic binding (2-[125I]-iodomelatonin, membrane homogenates of NIH-3T3 cells expressing ML1A receptor)
Details: 37° C. for 1 hour, NIH-3T3 cell membranes, read-out: IC50, binding affinity for melatonin receptors
Excerpt: The compounds of the invention are melatonergic agents. […] Further, the compounds are agonists as determined by their ability, like melatonin, to block the forskolin-stimulated accumulation of cAMP in certain cells. Due to these properties, the compounds and compositions of the invention should be useful as sedatives, chronobiotic agents, anxiolytics, antipsychotics, analgesics, and the like. Specifically, these agents should find use in the treatment of stress, sleep disorders, seasonal depression, appetite regulation, shifts in circadian cycles, melancholia, jet-lag, glaucoma, reproductive disorders, cancer, premenstrual syndrome, immune disorders, inflammatory diseases, neuroendocrine disorders and related conditions.
The melatonergic binding properties of compounds of the invention were measured using the following procedure.
(a) TME=50 mM Tris buffer containing 12.5 mM MgCl2, and 2 mM EDTA, pH 7.4 at 37° C. with concentrated HCl.
(b) Wash buffer: 20 mM Tris base containing 2 mM MgCl2. pH 7.4 at room temperature.
(c) 10^-4 M melatonin (10^-5 M final concentration).
(d) 2-[^125 I]-iodomelatonin, […] final concentration.
The melatonin ML1A receptor cDNA was subcloned into pcDNA3 and introduced into NIH-3T3 cells using Lipofectamine. […]

T1 sequence (P48039 whole entry): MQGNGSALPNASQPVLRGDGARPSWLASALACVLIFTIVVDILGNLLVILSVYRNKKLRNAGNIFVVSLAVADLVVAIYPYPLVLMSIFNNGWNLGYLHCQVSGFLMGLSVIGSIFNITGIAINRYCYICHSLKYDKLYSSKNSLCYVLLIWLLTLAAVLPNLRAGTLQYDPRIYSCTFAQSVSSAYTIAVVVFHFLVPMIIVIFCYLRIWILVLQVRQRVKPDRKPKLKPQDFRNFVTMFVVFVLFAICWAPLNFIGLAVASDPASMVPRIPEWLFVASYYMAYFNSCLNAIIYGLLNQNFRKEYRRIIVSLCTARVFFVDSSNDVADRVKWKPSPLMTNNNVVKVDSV

| IC50 | Compound |
| --- | --- |
| < 25 nM | CCC(=O)NCCC1c2ccccc2-c2ccc3c(c21)CCO3 (centres unmarked) [Example 1, N-[2-(2,10-dihydro-1H-fluoreno[2,1-b]furan-10-yl)ethyl]propanamide] |
| < 25 nM | CCC(=O)NCCC1c2cc(OC)ccc2-c2ccc3c(c21)OCO3 (centres unmarked) [Example 2, N-[2-(8-Methoxy-10H-fluoreno[1,2-d]-1,3-dioxol-10-yl)ethyl]propanamide] |
